# Measurements as given in patent US8546556B2, “Carbocyclic alpha-L-bicyclic nucleic acid analogs” (Isis Pharmaceuticals, Inc, priority 2007, dated 2013).
# Tested on: snake venom phosphodi-esterase (SVPD)
# Conditions: SVPD 0.0005 U/mL, 50 mM Tris-HCl pH 7.5, 8 mM MgCl2, 37° C., oligomer 5 μm; full-length oligomer by IP-HPLC/MS
# Protocol: [drawing 26] • The nuclease stability was determined after treatment with snake venom phosphodi-esterase (SVPD). Each of the test oligomers was incubated with SVPD (0.0005 U/mL) in 50 mM Tris-HCl, pH 7.5, 8 mM MgCl2 at 37° C. to a final concentration of 5 μm in a total volume of 400 μL. At each time point, a 50 μL aliquot and quenching buffer (8 M Urea, 50 mM EDTA) was placed in a 500 μL, microfuge tube. Kinetic time points were taken at 0, 0.5, 1, 1.5, 2, and 4 minutes for 7157; 0, 0.5, 1, 1.5, 2, 2.5, 3 and 5 minutes for 440140. The samples were then cooled on ice and spun in a Microfuge to bring the entire volume to the bottom of the tube. Samples were kept frozen until ready for LC/MS analysis.
# For each sample the oligomer and metabolites were separated and analyzed using IP-HPLC/MS techniques. Samples were diluted to a concentration of 1 μM with quenching buffer in a microsampling vial and 50 μL of the sample was injected into the IP-HPLC column (YMC ODS-AQ™ 1.0 mm×150 mm, 3 μm, 120 A°). The loading buffer used was 25 mM TBAA (tributyl ammonium acetate) in 25% acetonitrile. […] The percentages of the full-length oligomers were calculated by integration using Caesar v. 6 software (Senetec Software, New Jersey) and the oligonucleotide half-lives were calculated using GraphPad Prism 4.
sequence,measurement,value
TTTTTTTTTTTT [ISIS 7157],Half Life,24 s
